Measured values: US20240287042A1, “NOVEL COMPOUND HAVING INHIBITORY ACTIVITY AGAINST PENDRIN, AND PHARMACEUTICAL USES THEREOF” (UIF (University Industry Foundation), Yonsei University, priority 2021, published 2024)

Molecular target: T1, human wild-type (WT)-pendrin (Homo sapiens, UniProt O43511)
T1 construct: expressed in transfected cells
T1 sequence (O43511 1-780): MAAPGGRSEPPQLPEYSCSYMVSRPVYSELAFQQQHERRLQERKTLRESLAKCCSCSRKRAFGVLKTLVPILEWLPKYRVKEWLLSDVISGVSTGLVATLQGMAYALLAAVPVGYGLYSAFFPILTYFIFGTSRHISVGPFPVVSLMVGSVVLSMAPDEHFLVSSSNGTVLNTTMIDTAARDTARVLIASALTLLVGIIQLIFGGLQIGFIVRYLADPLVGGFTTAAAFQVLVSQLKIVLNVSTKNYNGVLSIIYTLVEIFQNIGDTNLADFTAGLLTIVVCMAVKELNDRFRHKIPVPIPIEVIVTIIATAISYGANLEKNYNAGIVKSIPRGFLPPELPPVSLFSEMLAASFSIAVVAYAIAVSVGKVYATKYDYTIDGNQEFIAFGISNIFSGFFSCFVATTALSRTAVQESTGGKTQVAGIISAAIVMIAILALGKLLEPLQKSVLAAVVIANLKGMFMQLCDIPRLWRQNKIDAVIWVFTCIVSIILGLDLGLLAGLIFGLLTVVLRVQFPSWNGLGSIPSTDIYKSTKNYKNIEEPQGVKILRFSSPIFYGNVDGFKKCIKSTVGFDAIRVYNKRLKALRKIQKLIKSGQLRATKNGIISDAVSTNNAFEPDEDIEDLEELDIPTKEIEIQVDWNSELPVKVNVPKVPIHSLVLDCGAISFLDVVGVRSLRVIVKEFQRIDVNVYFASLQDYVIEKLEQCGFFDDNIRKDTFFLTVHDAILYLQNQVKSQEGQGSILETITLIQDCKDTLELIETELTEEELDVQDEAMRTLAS
Test: Pendrin Cl−/I− exchange inhibitory activity, YFP fluorescence in CHO-K1 cells
Format: cell-based
Conditions: CHO-K1; for inhibition at 1 µM: compound concentration 1 μM; for inhibition at 3 µM: compound concentration 3 μM; for inhibition at 10 µM: compound concentration 10 μM; for inhibition at 30 µM: compound concentration 30 μM; for inhibition at 100 µM: compound concentration 100 μM
Procedure: Chinese hamster ovary (CHO)-K1 cells were cultured in DMEM medium containing 10% fetal bovine serum (FBS), 100 units/ml of penicillin and 100 μg/ml streptomycin. CHO-K1 cells were stably transfected with pcDNA3.1 encoding the halide sensor YFP-H148Q/I152L/F46L and human wild-type (WT)-pendrin.
(§1) CHO-K1 cells expressing human WT pendrin and YFP-F46L/H148Q/I152L were plated in 96-well microplates at a density of 2×10^4 cells per well, and cultured for 48 hours. Each well of the cell cultured 96-well plate was washed 2 times with 200 μL of PBS, and filled with 50 μL of HEPES buffered solution (140 mM NaCl, 5 mM KCl, 1 mM MgCl2, 1 mM CaCl2), 10 mM glucose and 10 mM HEPES (pH 7.4)). Test compounds (1 μL) were added to a final concentration of 1, 3, 10, 30 and 100 μM. After culturing at 37° C. for 10 minutes, the 96-well plate was located on the FLUOstar Omega Microplate Reader (BMG Labtech, Ortenberg, Germany) for a fluorescence assay. Fluorescence was recorded continuously (400 ms per point) for 1 second (baseline), whereby each well was assayed individually for pendrin-mediated I-influx. Then 50 μL of Na-substituted HEPES buffered solution (replacing NaCl with NaI) was added using a liquid injector at 1 second, and YFP fluorescence was recorded for 5 seconds. The initial iodide influx rate was determined from the initial slope of fluorescence by nonlinear regression, after the injection of iodide.
as §1, with “Chinese hamster ovary (CHO)-K1 cells were cultured in DMEM medium containing 10% fetal bovine serum (FBS), 100 units/ml of penicillin and 100 μg/ml streptomycin. CHO-K1 cells were stably transfected with pcDNA3.1 encoding the halide sensor YFP-H148Q/I152L/F46L and human wild-type (WT)-pendrin. 3-2: Assay of Cl^−/I^− exchange activity CHO-K1” for “CHO-K1”, “50” for “1, 3, 10, 30 and 100”, “Then,” for “Then”, “NaI-substituted” for “Na-substituted”

Structure (SMILES) | inhibition at 1 µM | inhibition at 3 µM | inhibition at 10 µM | inhibition at 30 µM | inhibition at 100 µM
Cc1ccccc1N1CCN(C(=O)Cc2c(C(=O)O)[nH]c3ccc(Cl)cc23)CC1 [YPI-A4847, 5-Chloro-3-(2-oxo-2-(4-(o-tolyl)piperazin-1-yl)ethyl)-1H-indole-2-carboxylic acid] | < 20% | < 20% | 60.6% | 91.5% | 92.4%
Cc1cccc(N2CCN(C(=O)Cc3c(C(=O)O)[nH]c4ccc(Cl)cc34)CC2)c1 [YPI-A4848, 5-Chloro-3-(2-oxo-2-(4-(m-tolyl)piperazin-1-yl)ethyl)-1H-indole-2-carboxylic acid] | < 20% | < 20% | < 20% | 58.9% | 90.5%
Cc1ccc(N2CCN(C(=O)Cc3c(C(=O)O)[nH]c4ccc(Cl)cc34)CC2)cc1 [YPI-A4849, 5-Chloro-3-(2-oxo-2-(4-(p-tolyl)piperazin-1-yl)ethyl)-1H-indole-2-carboxylic acid] | < 20% | < 20% | 36.8% | 90.9% | 92.3%
COc1ccccc1N1CCN(C(=O)Cc2c(C(=O)O)[nH]c3ccc(Cl)cc23)CC1 [YPI-A4876, 5-Chloro-3-(2-(4-(2-methoxyphenyl)piperazin-1-yl)-2-oxoethyl)-1H-indole-2-carboxylic acid] | < 20% | < 20% | < 20% | < 20% | 56.8%
COc1cccc(N2CCN(C(=O)Cc3c(C(=O)O)[nH]c4ccc(Cl)cc34)CC2)c1 [YPI-A4877, 5-Chloro-3-(2-(4-(3-methoxyphenyl)piperazin-1-yl)-2-oxoethyl)-1H-indole-2-carboxylic acid] | < 20% | < 20% | < 20% | < 20% | 67.5%
COc1ccc(N2CCN(C(=O)Cc3c(C(=O)O)[nH]c4ccc(Cl)cc34)CC2)cc1 [YPI-A4878, 5-Chloro-3-(2-(4-(4-methoxyphenyl)piperazin-1-yl)-2-oxoethyl)-1H-indole-2-carboxylic acid] | < 20% | < 20% | < 20% | < 20% | 79.4%
CC(C)(C)OC(=O)N1CCN(C(=O)Cc2c(C(=O)O)[nH]c3ccc(Cl)cc23)CC1 [YPI-A4879, 3-(2-(4-(tert-butoxycarbonyl)piperazin-1-yl)-2-oxoethyl)-5-chloro-1H-indole-2-carboxylic acid] | < 20% | < 20% | < 20% | < 20% | < 20%
Cc1cccc(Cl)c1N1CCN(C(=O)Cc2c(C(=O)O)[nH]c3ccc(Cl)cc23)CC1 [YPI-A4880, 5-Chloro-3-(2-(4-(2-chloro-6-methylphenyl)piperazin-1-yl)-2-oxoethyl)-1H-indole-2-carboxylic acid] | 42.8% | 75.2% | 97.6% | 98.1% | 98.4%
O=C(O)c1[nH]c2ccc(Cl)cc2c1CC(=O)N1CCN(c2ccccc2)CC1 [YPI-A4881, 5-Chloro-3-(2-oxo-2-(4-phenylpiperazin-1-yl)ethyl)-1H-indole-2-carboxylic acid] | < 20% | < 20% | < 20% | < 20% | 40.2%
CCOc1ccccc1N1CCN(C(=O)Cc2c(C(=O)O)[nH]c3ccc(Cl)cc23)CC1 [YPI-A4882, 5-Chloro-3-(2-(4-(2-ethoxyphenyl)piperazin-1-yl)-2-oxoethyl)-1H-indole-2-carboxylic acid] | < 20% | < 20% | < 20% | < 20% | 45.3%
CC1CN(C(=O)Cc2c(C(=O)O)[nH]c3ccc(Cl)cc23)CCN1c1ccccc1 (stereo not drawn) [YPI-A4883, 5-Chloro-3-(2-(3-methyl-4-phenylpiperazin-1-yl)-2-oxoethyl)-1H-indole-2-carboxylic acid] | < 20% | < 20% | < 20% | < 20% | < 20%
CC1(C)CN(c2ccc(Cl)cc2)CCN1C(=O)Cc1c(C(=O)O)[nH]c2ccc(Cl)cc12 [YPI-A4884, 5-Chloro-3-(2-(4-(4-chlorophenyl)-2,2-dimethylpiperazin-1-yl)-2-oxoethyl)-1H-indole-2-carboxylic acid] | < 20% | < 20% | < 20% | < 20% | –
O=C(O)c1[nH]c2ccc(Cl)cc2c1CC(=O)N1CCN(c2ccc(F)cc2Cl)CC1 [YPI-A4885, 5-Chloro-3-(2-(4-(2-chloro-4-fluorophenyl)piperazin-1-yl)-2-oxoethyl)-1H-indole-2-carboxylic acid] | < 20% | < 20% | 69.1% | 83.7% | 84.2%
COc1ccc(Cl)c(N2CCN(C(=O)Cc3c(C(=O)O)[nH]c4ccc(Cl)cc34)CC2)c1 [YPI-A4886, 5-Chloro-3-(2-(4-(2-chloro-5-methoxyphenyl)piperazin-1-yl)-2-oxoethyl)-1H-indole-2-carboxylic acid] | < 20% | < 20% | 33.7% | 66.2% | 79.9%
O=C(O)c1[nH]c2ccc(Cl)cc2c1CC(=O)N1CCN(c2ccc(Cl)cc2Cl)CC1 [YPI-A4887, 5-Chloro-3-(2-(4-(2,4-dichlorophenyl)piperazin-1-yl)-2-oxoethyl)-1H-indole-2-carboxylic acid] | < 20% | 50.8% | 89.3% | 89.5% | 89.9%
C[C@@H]1CN(c2ccccc2)CCN1C(=O)Cc1c(C(=O)O)[nH]c2ccc(Cl)cc12 [YPI-A4914, (R)-5-chloro-3-(2-(2-methyl-4-phenylpiperazin-1-yl)-2-oxoethyl)-1H-indole-2-carboxylic acid] | < 20% | < 20% | < 20% | < 20% | 68.2%
O=C(O)c1[nH]c2ccc(Cl)cc2c1CC(=O)N1CCN(c2ccc(F)cc2F)CC1 [YPI-A4915, 5-Chloro-3-(2-(4-(2,4-difluorophenyl)piperazin-1-yl)-2-oxoethyl)-1H-indole-2-carboxylic acid] | < 20% | < 20% | < 20% | 65.2% | 93.3%
